From patent EP4559908A1, “HETEROARYL DERIVATIVE COMPOUND AND USE THEREOF” (S2CBio Inc., priority 2022, dated 2024)
Like-named read-outs stand apart in the source and are kept apart here.

Molecular target: T1, human ANO6 (variant 5) (Homo sapiens, UniProt Q4KMQ2)
T1 construct: expressed in transfected cells; host or cells: Fischer rat thyroid (FRT) cells
T1 sequence (Q4KMQ2 1-931 isoform Q4KMQ2-2): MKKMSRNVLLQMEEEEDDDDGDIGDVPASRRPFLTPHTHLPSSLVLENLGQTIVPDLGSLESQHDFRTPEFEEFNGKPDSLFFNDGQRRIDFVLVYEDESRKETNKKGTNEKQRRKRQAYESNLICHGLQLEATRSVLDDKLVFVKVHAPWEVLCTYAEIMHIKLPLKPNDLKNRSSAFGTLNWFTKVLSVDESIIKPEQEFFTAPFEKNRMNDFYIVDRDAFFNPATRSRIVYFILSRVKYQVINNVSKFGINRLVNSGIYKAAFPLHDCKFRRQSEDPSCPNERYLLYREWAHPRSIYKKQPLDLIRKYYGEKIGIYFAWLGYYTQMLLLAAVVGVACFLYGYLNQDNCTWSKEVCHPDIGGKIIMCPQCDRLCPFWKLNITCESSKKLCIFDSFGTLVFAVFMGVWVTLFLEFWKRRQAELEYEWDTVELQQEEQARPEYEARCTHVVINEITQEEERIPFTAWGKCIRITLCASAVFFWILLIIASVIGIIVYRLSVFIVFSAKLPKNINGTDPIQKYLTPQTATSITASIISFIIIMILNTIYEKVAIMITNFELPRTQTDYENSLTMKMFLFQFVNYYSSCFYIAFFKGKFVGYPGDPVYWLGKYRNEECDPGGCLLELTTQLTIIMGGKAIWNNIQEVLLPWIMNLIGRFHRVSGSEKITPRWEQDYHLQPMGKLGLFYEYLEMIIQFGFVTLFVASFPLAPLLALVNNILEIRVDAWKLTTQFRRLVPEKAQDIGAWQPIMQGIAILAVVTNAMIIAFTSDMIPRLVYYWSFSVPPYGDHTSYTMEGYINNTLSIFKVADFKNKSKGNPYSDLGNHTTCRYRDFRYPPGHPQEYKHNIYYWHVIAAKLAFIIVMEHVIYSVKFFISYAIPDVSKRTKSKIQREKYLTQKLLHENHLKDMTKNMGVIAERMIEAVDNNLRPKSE
Assay: Lact C2 assay (measuring phosphatidylserine externalization scramblase function)
Type: cell-based
Settings: FRT; for inhibition at 0.05 µM: read-out: % Inhibition 50 nM; for inhibition at 1 µM: read-out: % Inhibition 1 µM
Summary of the method: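 Cells were pretreated 10 min with compound (50 nM, 100 nM, 1 µM; 1% DMSO), then given 10 µM ionomycin for 10 min. Surface phosphatidylserine was stained with 500 nM Lact-C2-GFP (10 min, 37 °C), fixed and imaged. Inhibition was scaled between untreated (100%) and ionomycin-alone (0%) wells.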

[1] = compound 50 nM, FRT cells expressing human ANO6 (variant 5), ionomycin 10 µM, Lact-C2-GFP fluorescence, average of three tests
[2] = compound 1 µM, FRT cells expressing human ANO6 (variant 5), ionomycin 10 µM, Lact-C2-GFP fluorescence, average of three tests

Fc1ccc(-c2cnc(Nc3cccc(-c4nc5ccc(C(F)(F)F)cc5[nH]4)c3)nc2)nc1 [Example 260, 5-(5-fluoropyridin-2-yl)-N-(3-(6-(trifluoromethyl)-1H-benzo[d]imidazol-2-yl)phenyl)pyrimidin-2-amine]
inhibition at 0.05 µM [1]: 30 to 60%
inhibition at 1 µM [2]: > 60%

FC(F)(F)c1ccc2nc(-c3ccnc(Nc4ccc(-c5cccnn5)cc4)c3)[nH]c2c1 [Example 261, N-(4-(pyridazin-3-yl)phenyl)-4-(6-(trifluoromethyl)-1H-benzo[d]imidazol-2-yl) pyridin-2-amine]
inhibition at 0.05 µM [1]: 30 to 60%
inhibition at 1 µM [2]: > 60%

FC(F)(F)c1ccc2nc(-c3cncc(Nc4ccc(-c5cccnn5)cc4)c3)[nH]c2c1 [Example 262, N-(4-(pyridazin-3-yl)phenyl)-5-(6-(trifluoromethyl)-1H-benzo[d]imidazol-2-yl)pyridin-3-amine]
inhibition at 0.05 µM [1]: > 60%

FC(F)(F)c1ccc2nc(-c3cc(Nc4ccc(-c5cccnn5)cc4)ccn3)[nH]c2c1 [Example 263, N-(4-(pyridazin-3-yl)phenyl)-2-(6-(trifluoromethyl)-1H-benzo[d]imidazol-2-yl)pyridin-4-amine]
inhibition at 1 µM [2]: 30 to 60%

Fc1ccc(-c2ccc(Nc3cccc(-c4nc5ccc(C(F)(F)F)cc5[nH]4)c3)cc2)nn1 [Example 264, N-(4-(6-fluoropyridazin-3-yl)phenyl)-3-(6-(trifluoromethyl)-1H-benzo[d]imidazol-2-yl) aniline]
inhibition at 0.05 µM [1]: > 60%

Fc1ccc(-c2ccc(Nc3cccc(-c4nc5ccccc5[nH]4)c3)cc2)nn1 [Example 265, 3-(1H-benzo[d]imidazol-2-yl)-N-(4-(6-fluoropyridazin-3-yl)phenyl)aniline]
inhibition at 0.05 µM [1]: > 60%

Fc1cc(-c2cccnn2)ccc1Nc1cccc(-c2nc3ccccc3[nH]2)c1 [Example 269, N-(3-(1H-benzo[d]imidazol-2-yl)phenyl)-2-fluoro-4-(pyridazin-3-yl)aniline]
inhibition at 0.05 µM [1]: 30 to 60%
inhibition at 1 µM [2]: > 60%

Fc1cc(Nc2cccc(-c3nc4ccccc4[nH]3)c2)ccc1-c1cccnn1 [Example 270, N-(3-(1H-benzo[d]imidazol-2-yl)phenyl)-3-fluoro-4-(pyridazin-3-yl)aniline]
inhibition at 0.05 µM [1]: > 60%

c1ccc(-c2cnc(Nc3cccc(-c4nc5ccccc5[nH]4)c3)nn2)cc1 [Example 271, N-(3-(1H-benzo[d]imidazol-2-yl)phenyl)-6-phenyl-1,2,4-triazin-3-amine]
inhibition at 1 µM [2]: 30 to 60%

FC(F)(F)c1ccccc1-c1ccc(Nc2cccc(-c3nc4ccccc4[nH]3)c2)cc1 [Example 272, N-(3-(1H-benzo[d]imidazol-2-yl)phenyl)-2'-(trifluoromethyl)-[1,1'-biphenyl]-4-amine]
inhibition at 1 µM [2]: > 60%

COc1ccc(-c2ccc(Nc3cccc(-c4nc5ccccc5[nH]4)c3)cc2)nn1 [Example 275, 3-(1H-benzo[d]imidazol-2-yl)-N-(4-(6-methoxypyridazin-3-yl)phenyl)aniline]
inhibition at 1 µM [2]: > 60%

c1ccc(-c2cnc(Nc3cccc(-c4nc5ccccc5[nH]4)c3)cn2)nc1 [Example 276, N-(3-(1H-benzo[d]imidazol-2-yl)phenyl)-5-(pyridin-2-yl)pyrazin-2-amine]
inhibition at 0.05 µM [1]: > 60%

c1cc(Nc2cnc(-c3ccncn3)cn2)cc(-c2nc3ccccc3[nH]2)c1 [Example 277, N-(3-(1H-benzo[d]imidazol-2-yl)phenyl)-5-(pyrimidin-4-yl)pyrazin-2-amine]
inhibition at 0.05 µM [1]: > 60%

COc1ccc(-c2ccc(Nc3cccc(-c4nc5ccc(C(F)(F)F)cc5[nH]4)c3)cc2)nn1 [Example 278, N-(4-(6-methoxypyridazin-3-yl)phenyl)-3-(6-(trifluoromethyl)-1H-benzo[d]imidazol-2-yl)aniline]
inhibition at 0.05 µM [1]: > 60%

CNc1ccc2nc(-c3cccc(Nc4ccc(-c5cccnn5)cc4)c3)[nH]c2c1 [Example 279, N-methyl-2-(3-((4-(pyridazin-3-yl)phenyl)amino)phenyl)-1H-benzo[d]imidazol-6-amine]
inhibition at 1 µM [2]: 30 to 60%

CN(Cc1ccccc1)c1ccc2nc(-c3cccc(Nc4ccc(-c5cccnn5)cc4)c3)[nH]c2c1 [Example 280, N-benzyl-N-methyl-2-(3-((4-(pyridazin-3-yl)phenyl)amino)phenyl)-1H-benzo[d]imidazol-6-amine]
inhibition at 0.05 µM: 30 to 60%
inhibition at 1 µM: > 60%

Fc1cc2[nH]c(-c3cccc(Nc4ccc(-c5ccccn5)cn4)c3)nc2cn1 [Example 281, N-(3-(6-fluoro-1H-imidazo[4,5-c]pyridin-2-yl)phenyl)-[2,3'-bipyridin]-6'-amine]
inhibition at 0.05 µM [1]: > 60%
inhibition at 1 µM [2]: > 60%

Clc1cc2[nH]c(-c3cccc(Nc4ccc(-c5ccccn5)cn4)c3)nc2cn1 [Example 282, N-(3-(6-chloro-1H-imidazo[4,5-c]pyridin-2-yl)phenyl)-[2,3'-bipyridin]-6'-amine]
inhibition at 0.05 µM [1]: 30 to 60%
inhibition at 1 µM [2]: > 60%

Fc1cc2nc(-c3cccc(Nc4ccc(-c5ccccn5)cn4)c3)[nH]c2cc1F [Example 283, N-(3-(5,6-difluoro-1H-benzo[d]imidazol-2-yl)phenyl)-[2,3'-bipyridin] -6'-amine]
inhibition at 0.05 µM [1]: > 60%
inhibition at 1 µM [2]: > 60%

FC(F)Oc1ccc2nc(-c3cccc(Nc4ccc(-c5ccccn5)cn4)c3)[nH]c2c1 [Example 284, N-(3-(6-(difluoromethoxy)-1H-benzo[d]imidazol-2-yl)phenyl)-[2,3'-bipyridin]-6'-amine]
inhibition at 0.05 µM [1]: > 60%
inhibition at 1 µM [2]: > 60%

FC(F)Oc1ccc2nc(-c3cccc(Nc4ncc(-c5ccccn5)cn4)c3)[nH]c2c1 [Example 285, N-(3-(6-(difluoromethoxy)-1H-benzo[d]imidazol-2-yl)phenyl)-5-(pyridin-2-yl)pyrimidin-2-amine]
inhibition at 0.05 µM [1]: > 60%
inhibition at 1 µM [2]: > 60%

Fc1cc2[nH]c(-c3cccc(Nc4ncc(-c5ccccn5)cn4)c3)nc2cn1 [Example 286, N-(3-(6-fluoro-1H-imidazo[4,5-c]pyridin-2-yl)phenyl)-5-(pyridin-2-yl)pyrimidin-2-amine]
inhibition at 1 µM [2]: > 60%

FC(F)Oc1ccc2nc(-c3cccc(Nc4ncc(-c5cccnn5)cn4)c3)[nH]c2c1 [Example 287, N-(3-(6-(difluoromethoxy)-1H-benzo[d]imidazol-2-yl)phenyl)-5-(pyridazin-3-yl)pyrimidin-2-amine]
inhibition at 1 µM [2]: 30 to 60%

FC(F)(F)c1cccc2nc(-c3cccc(Nc4ncc(-c5cccnn5)cn4)c3)[nH]c12 [Example 289, 5-(pyridazin-3-yl)-N-(3-(7-(trifluoromethyl)-1H-benzo[d]imidazol-2-yl)phenyl)pyrimidin-2-amine]
inhibition at 1 µM [2]: 30 to 60%

Fc1cccc2nc(-c3cccc(Nc4ncc(-c5cccnn5)cn4)c3)[nH]c12 [Example 290, N-(3-(7-fluoro-1H-benzo[d]imidazol-2-yl)phenyl)-5-(pyridazin-3-yl)pyrimidin-2-amine]
inhibition at 1 µM [2]: 30 to 60%

Fc1cc(F)c2[nH]c(-c3cccc(Nc4ncc(-c5cccnn5)cn4)c3)nc2c1 [Example 292, N-(3-(5,7-difluoro-1H-benzo[d]imidazol-2-yl)phenyl)-5-(pyridazin-3-yl)pyrimidin-2-amine]
inhibition at 1 µM [2]: 30 to 60%

FC(F)(F)c1cc2nc(-c3cccc(Nc4ncc(-c5cccnn5)cn4)c3)[nH]c2cc1Cl [Example 294, N-(3-(6-chloro-5-(trifluoromethyl)-1H-benzo[d]imidazol-2-yl)phenyl)-5-(pyridazin-3-yl)pyrimidin-2-amine]
inhibition at 0.05 µM [1]: 30 to 60%
inhibition at 1 µM [2]: > 60%

FC(F)(F)Oc1ccc2nc(-c3cccc(Nc4ncc(-c5cccnn5)cn4)c3)[nH]c2c1 [Example 295, 5-(pyridazin-3-yl)-N-(3-(6-(trifluoromethoxy)-1H-benzo[d]imidazol-2-yl)phenyl)pyrimidin-2-amine]
inhibition at 0.05 µM [1]: 30 to 60%
inhibition at 1 µM [2]: > 60%

FC(F)(F)c1ccc2nc(-c3cccc(Nc4ccc(-c5ccncn5)nn4)c3)[nH]c2c1 [Example 296, 6-(pyrimidin-4-yl)-N-(3-(6-(trifluoromethyl)-1H-benzo[d]imidazol-2-yl)phenyl)pyridazin-3-amine]
inhibition at 1 µM [2]: 30 to 60%

Fc1cc2nc(-c3cccc(Nc4cnc(-c5ccncn5)cn4)c3)[nH]c2cc1F [Example 297, N-(3-(5,6-difluoro-1H-benzo[d]imidazol-2-yl)phenyl)-5-(pyrimidin-4-yl)pyrazin-2-amine]
inhibition at 0.05 µM [1]: > 60%
inhibition at 1 µM [2]: > 60%
